“Also recorded” adds a separate entry of the source.
How the values were obtained:
[1] = target: T1, Clostridium phytofermentans xylose isomerase (SEQ ID NO: 1) (Lachnoclostridium phytofermentans, UniProt A9KN98); test: Xylitol inhibition of the xylose isomerase (method names p426H7-XI-Clos); format: biochemical
T1 construct: raw extract
Description: (§9) 50 ml of cultures of yeast cells were grown to the exponential phase in synthetic minimal medium with 2% glucose. The cells were harvested, washed twice in Tris-HCl buffer (pH 7.5) and disrupted by means of glass beads (Ø=0.45 nm) for 8 min on a Vibrax (Janke & Kunkel, Vibrax-VBR) at 4° C. Cell debris was removed by centrifugation for 10 min at 13,000 rpm. Subsequently, the supernatant was collected and filled up to 2 ml with cold Tris-HCl buffer (pH 7.5) and used as a raw extract for the protein determination and for the measurement of the enzyme activities or the xylitol inhibition.
(§10) The XI activity was performed at 30° C. in a reaction mix (100 mM of Tris-HCl, pH 7.5; 10 mM of MgCl2, 0.23 mM of NADH; 2 U of sorbitol dehydrogenase) with different raw extract concentrations. Additionally, different concentrations of xylitol (10-100 mM) were present in the reaction mix.

[2] = target: Piromyces sp. E2 xylose isomerase, codon-optimized (plasmid p426H7-opt.XI-Piro) (Piromyces sp. E2, UniProt A0ACD6B9F5); test: Xylitol inhibition of the xylose isomerase, comparison enzyme; format: biochemical
Description: as §9, §10

[3] = target: T2, Clostridium phytofermentans xylose isomerase, codon-optimized form (plasmid p426H7-opt.XI-Clos; protein SEQ ID NO: 1, ORF SEQ ID NO: 3) (Lachnoclostridium phytofermentans, UniProt A9KN98); test: Xylitol inhibition of the xylose isomerase, codon-optimized XI gene; format: biochemical
Description: (§1) 50 ml of cultures of yeast cells were grown to the exponential phase in synthetic minimal medium with 2% glucose. The cells were harvested, washed twice in Tris-HCl buffer (pH 7.5) and disrupted by means of glass beads (Ø=[…]) for 8 min on a Vibrax (Janke & Kunkel, Vibrax-VBR) at 4° C. Cell debris was removed by centrifugation for 10 min at 13,000 rpm. Subsequently, the supernatant was collected and filled up to 2 ml with cold Tris-HCl buffer (pH 7.5) and used as a raw extract for the protein determination and for the measurement of the enzyme activities or the xylitol inhibition.
(§2) Recombinant yeast cells with the vector p426H7-opt.XI-Piro or the vector p426HXT7-6HIS, respectively, served as a comparison. […] The acceptance of NADH as a measured variable was determined spectrophotometrically at a wave length of 340 nm. The reaction was started by adding xylose. […]
(§3) K was determined via the equation Km′=Km′=Km*(1+i/Ki), i being the xylitol concentration used and Km′ being the apparent Km value at the corresponding xylitol concentration.
(§4) The strain CEN.PK2-1C transformed with the plasmid p426H7-opt.XI-Clos and p426H7-opt.XI-Piro, respectively, was grown over night in synthetic complete medium with 2% glucose and no uracil. Raw extracts were prepared and quantitative enzyme tests with constant xylitol concentrations of 10-100 mM were performed.

[4] = test system: Piromyces sp. E2 xylose isomerase; details: result in words, prior art; cited from earlier work
[5] = target: T2, Clostridium phytofermentans xylose isomerase, codon-optimized form (plasmid p426H7-opt.XI-Clos; protein SEQ ID NO: 1, ORF SEQ ID NO: 3); test: Xylose isomerase activity, enzyme kinetics with xylose (raw extract, sorbitol dehydrogenase coupled, NADH 340 nm), codon-optimized XI gene; format: biochemical; details: table 3; xylose 6.25-500 mM, 30° C., pH 7.5, raw extract
Description: (§5) The strain CEN.PK2-1C transformed with the plasmid p426H7-XI-Clos and p426H7-opt.XI-Clos, respectively, was grown over night in synthetic complete medium with 2% glucose and no uracil. Raw extracts were prepared and quantitative enzyme tests were performed. A representative result is shown. The values indicated in table 3 are average values from at least 3 independent measurements.
(§6) 50 ml of cultures of yeast cells were grown to the exponential phase in synthetic minimal medium with 2% glucose. The cells were harvested, washed twice in Tris-HCl buffer (pH 7.5) and disrupted by means of glass beads (Ø=[…]) for 8 min on a Vibrax (Janke & Kunkel, Vibrax-VBR) at 4° C. Cell debris was removed by centrifugation for 10 min at 13,000 rpm. […]
(§7) Recombinant yeast cells containing the empty vector p426HXT7-6HIS served as a comparison. […] The acceptance of NADH as a measured variable was determined spectrophotometrically at a wave length of 340 nm. […]
(§8) The strain CEN.PK2-1C transformed with the plasmid p426H7-XI-Clos and p426H7-opt.XI-Clos, respectively, was grown over night in synthetic complete medium with 2% glucose and no uracil. Raw extracts were prepared and quantitative enzyme tests were performed.

[6] = target: Clostridium phytofermentans xylose isomerase, native form (plasmid p426H7-XI-Clos; protein SEQ ID NO: 1, ORF SEQ ID NO: 2) (Lachnoclostridium phytofermentans, UniProt A9KN98); test: Xylose isomerase activity, enzyme kinetics with xylose (raw extract, sorbitol dehydrogenase coupled, NADH 340 nm), native XI gene; format: biochemical; details: xylose 6.25-500 mM, 30° C.
Description: as §5, §6, §7, §8

[7] = substrate: OC1OC[C@@H](O)[C@H](O)[C@H]1O; test: purified protein, by the assay type; details: other: xylose 6.25-500 mM, 30° C., pH 7.5, raw extract of CEN.PK2-1C
[8] = test system: yeast strain MKY09; test: Growth test on agar plates with SC medium and 2% xylose as only carbon source; format: cell-based, S. cerevisiae; details: SC medium
Source text: Growth tests of recombinant S. cerevisiae strains, which include the bacterial D-xylose metabolism with the xylose isomerase from C. phytofermentans. […] The empty vector p426HXT7-6HIS (5A) served as the negative control.
In the yeast strain CEN.PK2-1C, all the genes of the non-oxidative pentose phosphate pathway as well as the xylulokinase (XKS1) and GAL2 were overexpressed. To this end, the endogenous promoters were replaced with the truncated HXT7 promoter.
The obtained PCR products were together with the vector p426HXT7-6HIS linearized with EcoRI/BamHI transformed in yeast and cloned via in vivo recombination into the plasmid between the HXT7 promoter or CYC1 terminator, respectively (FIG. 4). The sequence of the plasmids obtained was verified by means of restriction analysis. […] However, it was not possible to amplify the desired PCR product with the xylose isomerase from the organisms Streptomyces diastaticus and Leifsonia xyli. Both xylose isomerases thus could not be tested on functionality in yeast.
To this end, the codon-optimized XI-ORF was amplified with primers and cloned into the linearized vector p426HXT7-6HIS (see “Execution of the screen”). The sequence of the obtained plasmid p426H7-opt.XI-Clos was verified by means of restriction analysis. To test the functionality of the codon-optimized isomerase, the plasmid p426H7-opt.XI-Clos was transformed in the strain MKY09. […]

[9] = test system: xylose isomerase from C. phytofermentans; test: Measurement of the xylitol inhibition of the xylose isomerase (raw extracts); format: biochemical, Clostridium phytofermentans; details: from the determined Ki values
Description: as §1, §2, §3, §4

Piromyces sp. E2 xylose isomerase, codon-optimized (plasmid p426H7-opt.XI-Piro), sequence (A0ACD6B9F5 1-437): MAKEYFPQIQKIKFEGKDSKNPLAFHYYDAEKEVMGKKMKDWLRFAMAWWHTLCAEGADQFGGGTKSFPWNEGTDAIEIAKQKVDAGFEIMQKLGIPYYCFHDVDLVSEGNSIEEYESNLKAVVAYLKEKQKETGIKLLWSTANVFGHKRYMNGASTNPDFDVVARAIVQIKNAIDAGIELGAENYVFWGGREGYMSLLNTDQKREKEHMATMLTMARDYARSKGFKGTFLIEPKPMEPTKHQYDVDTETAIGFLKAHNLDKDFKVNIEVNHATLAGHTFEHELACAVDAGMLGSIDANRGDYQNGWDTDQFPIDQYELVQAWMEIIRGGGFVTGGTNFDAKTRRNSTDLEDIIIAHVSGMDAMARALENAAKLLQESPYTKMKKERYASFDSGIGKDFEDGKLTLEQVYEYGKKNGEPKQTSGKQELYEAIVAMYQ

In the case of `OC[C@@H](O)[C@H](O)[C@@H](O)CO` [xylitol], the Ki [1] is reported as 14.2 ± 1.48 mM, the xylitol inhibition ([1]; result in words) is reported as “competitive inhibition; also recorded: significantly less inhibited by xylitol than the xylose isomerase from Piromyces sp.E2; also recorded: only slightly inhibited” and the Ki [2] is reported as 4.67 ± 1.77 mM. For the same molecule, the Ki [3] was 14.5 ± 1.08 mM and the inhibition by xylitol [4] was “strongly inhibited”.

In the case of `OC1OC[C@@H](O)[C@H](O)[C@H]1O` (some centres unmarked) [xylose], the Vmax [5] is reported as 0.0344 μmol/min^−1 protein^−1) mg, the Vmax ([6]; table 3, pH 7.5, raw extract) is reported as 0.0076 μmol/min^−1 protein^−1) mg and the Km ([6]; pH 7.5, raw extract of CEN.PK2-1C) is reported as 61.8 ± 3.4 mM.

B1: Clostridium phytofermentans xylose isomerase, native form (plasmid p426H7-XI-Clos; protein SEQ ID NO: 1, ORF SEQ ID NO: 2) (Lachnoclostridium phytofermentans … (protein)
chain: MKNYFPNVPEVKYEGPNSTNPFAFKYYDANKVVAGKTMKEHCRFALSWWHTLCAGGADPFGVTTMDRTYGNITDPMELAKAKVDAGFELMTKLGIEFFCFHDADIAPEGDTFEESKKNLFEIVDYIKEKMDQTGIKLLWGTANNFSHPRFMHGASTSCNADVFAYAAAKIKNALDATIKLGGKGYVFWGGREGYETLLNTDLGLELDNMARLMKMAVEYGRANGFDGDFYIEPKPKEPTKHQYDFDTATVLAFLRKYGLEKDFKMNIEANHATLAGHTFEHELAMARVNGAFGSVDANQGDPNLGWDTDQFPTDVHSATLAMLEVLKAGGFTNGGLNFDAKVRRGSFEFDDIAYGYIAGMDTFALGLIKAAEIIDDGRIAKFVDDRYASYKTGIGKAIVDGTTSLEELEQYVLTHSEPVMQSGRQEVLETIVNNILFR
Work on B1 yielded a Km [7] of 61.85 ± 3.41 mM and a Vmax [7] of 0.0076 μmol/min^−1 mg protein^−1.

B2: xylose isomerase from C. phytofermentans: prokaryotic xylose isomerase of Clostridium phytofermentans, protein SEQ ID NO: 1; gene form not specified at the place (protein)
chain: B1 chain
modifications: Clostridium phytofermentans
notes: gene form not specified at the place
With B2 the “growth on plates containing xylose” value [8] was “good growth” and the “inhibition by xylitol compared with the xylose isomerase from Piromyces sp.E2” value [9] was “significantly less inhibited by xylitol”.

B3: Clostridium phytofermentans xylose isomerase, codon-optimized form (plasmid p426H7-opt.XI-Clos; protein SEQ ID NO: 1, ORF SEQ ID NO: 3) (Lachnoclostridium … (protein)
chain: B1 chain
For B3, the Km [7] was 66.01 ± 1^ mM and the Vmax [7] was 0.0344 μmol/min^−1 mg protein^−1.

— US10006020B2 (LESAFFRE ET COMPAGNIE, priority 2008, dated 2018)
